US11999727B2 (Tango Therapeutics, Inc., priority 2020, dated 2024)

Legend:
[1] = molecular target: T1, PRMT5 (Homo sapiens, UniProt O14744); test: PRMT5 biochemical IC50 assay with no cofactor; conditions: PRMT5, no cofactor; read-out: No Cofactor/rel IC50
T1 construct: purchased Viva (custom protein)
Excerpt: Table 1 indicates IC50 values (μM) against PRMT5 for exemplary compounds in the presence of SAM as cofactor, with no cofactor, and with MTA as cofactor, respectively (columns 4-6). […] Ki values can be calculated from the IC50 values as described in the Examples section. As detailed in the Examples section, for the assay performed in the presence of SAM, IC50=Ki×1.5 (Ki=IC50/1.5).

[2] = molecular target: T1, PRMT5; test: PRMT5 biochemical IC50 assay with MTA as cofactor; conditions: PRMT5, MTA as cofactor; read-out: MTA IC50
[3] = molecular target: T1, PRMT5; test: PRMT5 biochemical IC50 assay with SAM as cofactor; conditions: PRMT5, SAM as cofactor; read-out: SAM IC50
[4] = system: HAP1 MTAP-deleted cell line; test: SDMA in-cell western assay, HAP1 MTAP-deleted; assay type: cell-based; conditions: for IC50: Homo sapiens, HAP1, SDMA in-cell western, HAP1 MTAP-deleted, read-out: HAP1 MTAP deleted IC50; for MTAP intact/deleted ratio: IC50 ratio HAP1 MTAP-intact vs HAP1 MTAP-deleted, SDMA in-cell western
Outline: (§1)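 Compounds were tested in HAP1 cells differing only in MTAP status (endogenous expression versus null). Cellular SDMA levels were then measured by in-cell western, giving an IC50 in each background.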

[5] = system: HAP1 MTAP-intact cell line; test: SDMA in-cell western assay, HAP1 MTAP-intact; assay type: cell-based; conditions: Homo sapiens, HAP1, SDMA in-cell western, HAP1 MTAP-intact; read-out: MTAP HAP1 intact IC50
Outline: as §1

[6] = system: HAP1 MTAP-deleted cell line; test: Viability assay, MTAP-deleted cell line; assay type: cell-based; conditions: Homo sapiens, HAP1, viability assay, MTAP-deleted cell line; read-out: HAP1 MTAP deleted viability
Excerpt: Table 1 additionally indicates IC50 values in a viability assay for the MTAP-deleted cell line (column 10), indicating the effect of treatment with compound on cell survival.

T1 sequence (O14744 whole entry): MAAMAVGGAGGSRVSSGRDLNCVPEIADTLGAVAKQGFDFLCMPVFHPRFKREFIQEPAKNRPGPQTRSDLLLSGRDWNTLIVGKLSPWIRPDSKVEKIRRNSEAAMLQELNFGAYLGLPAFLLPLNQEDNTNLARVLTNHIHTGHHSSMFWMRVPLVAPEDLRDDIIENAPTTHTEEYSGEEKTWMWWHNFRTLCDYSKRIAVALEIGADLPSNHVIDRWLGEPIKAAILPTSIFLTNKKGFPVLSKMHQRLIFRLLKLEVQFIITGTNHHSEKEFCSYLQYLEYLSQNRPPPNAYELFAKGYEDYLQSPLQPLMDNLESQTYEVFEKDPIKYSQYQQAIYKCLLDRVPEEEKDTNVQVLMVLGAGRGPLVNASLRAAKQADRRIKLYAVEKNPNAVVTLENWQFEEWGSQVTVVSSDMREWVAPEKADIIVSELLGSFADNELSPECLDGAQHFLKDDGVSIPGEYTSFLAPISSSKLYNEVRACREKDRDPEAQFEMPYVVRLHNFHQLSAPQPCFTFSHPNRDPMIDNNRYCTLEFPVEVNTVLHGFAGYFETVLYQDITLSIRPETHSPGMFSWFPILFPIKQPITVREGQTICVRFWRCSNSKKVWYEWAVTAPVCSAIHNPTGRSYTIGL
T1 sequence (Q9BQA1 whole entry partner): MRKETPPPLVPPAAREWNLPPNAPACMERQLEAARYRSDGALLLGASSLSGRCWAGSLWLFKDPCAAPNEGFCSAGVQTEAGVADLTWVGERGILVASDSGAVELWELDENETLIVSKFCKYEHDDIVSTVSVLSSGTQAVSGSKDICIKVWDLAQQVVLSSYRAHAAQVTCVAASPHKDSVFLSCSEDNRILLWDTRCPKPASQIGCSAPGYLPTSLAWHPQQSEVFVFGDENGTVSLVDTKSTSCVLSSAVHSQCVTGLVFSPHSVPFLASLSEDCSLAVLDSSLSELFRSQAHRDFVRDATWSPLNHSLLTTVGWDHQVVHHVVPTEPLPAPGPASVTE

| IC50 [1] | IC50 [2] | IC50 [3] | IC50 [4] | IC50 [5] | Structure (SMILES) | MTAP intact/deleted ratio [4] | IC50 [6] |
| --- | --- | --- | --- | --- | --- | --- | --- |
| < 50 nM | < 50 nM | 50 to 500 nM | < 100 nM | 100 to 1000 nM | CCc1cc(NC(=O)C(=O)N2C[C@@H](C)CC[C@@H]2c2ccc3nn([C@H]4CCN(C)C4)cc3c2)cnc1N (racemic) [Compound 1091, N-(6-Amino-5-ethyl-3-pyridyl)-2-oxo-2-[rac-(2R,5S)-5-methyl-2-[2-[rac-(3S)-1-methylpyrrolidin-3-yl]indazol-5-yl]-1-piperidyl]acetamide] | A (an IC50 ratio greater than or equal to 10 fold) | < 1000 nM |
| 50 to 500 nM | 50 to 500 nM | 50 to 500 nM | < 100 nM | 100 to 1000 nM | CCc1cc(NC(=O)C(=O)N2C[C@@H](C)[C@@H](OC(C)C)C[C@@H]2c2ccc3scnc3c2)cnc1N (racemic) [Compound 1094, N-(6-Amino-5-ethyl-3-pyridyl)-2-[(2S,4R,5S)-2-(1,3-benzothiazol-5-yl)-4-isopropoxy-5-methyl-1-piperidyl]-2-oxo-acetamide] | A (an IC50 ratio greater than or equal to 10 fold) | < 1000 nM |
| < 50 nM | < 50 nM | < 50 nM | < 100 nM | < 100 nM | CCc1cc(NC(=O)C(=O)N2C[C@@H](C)CC[C@@H]2c2ccc3cn(C4CCN(C)CC4)nc3c2)cnc1N (racemic) [Compound 1096, N-(6-Amino-5-ethyl-3-pyridyl)-2-oxo-2-[rac-(2R,5S)-5-methyl-2-[2-(1-methyl-4-piperidyl)indazol-6-yl]-1-piperidyl]acetamide] | A (an IC50 ratio greater than or equal to 10 fold) | < 1000 nM |
| < 50 nM | < 50 nM | < 50 nM | < 100 nM | < 100 nM | CCc1cc(NC(=O)C(=O)N2CC(C)CCC2c2ccc3sc(C4CCN(C)CC4C)nc3c2)cnc1N (racemic) [Compound 1098, N-(6-amino-5-ethyl-3-pyridyl)-2-oxo-2-[rac-(2R,5S)-5-methyl-2-[2-[rac-(3R,4S)-1,3-dimethyl-4-piperidyl]-1,3-benzothiazol-5-yl]-1-piperidyl]acetamide] | B (an IC50 ratio greater than or equal to 3 fold but lower than 10 fold) | < 1000 nM |
| < 50 nM | < 50 nM | 50 to 500 nM | < 100 nM | 100 to 1000 nM | CCc1cc(NC(=O)C(=O)N2C[C@@H](C)CC[C@@H]2c2ccc(N3CCN(C)C[C@@H]3C)nc2)cnc1N (racemic) [Compound 1099, N-(6-amino-5-ethyl-3-pyridyl)-2-[(2R,5S)-2-[6-[(2S)-2,4-dimethylpiperazin-1-yl]-3-pyridyl]-5-methyl-1-piperidyl]-2-oxo-acetamide] | A (an IC50 ratio greater than or equal to 10 fold) | < 1000 nM |
| < 50 nM | < 50 nM | 50 to 500 nM | < 100 nM | < 100 nM | Cc1cc(NC(=O)C(=O)N2C[C@@H](C)CC[C@@H]2c2ccc3sc(-c4cnn(C)c4)nc3c2)cnc1N (racemic) [Compound 1104, rac-N-(6-amino-5-methylpyridin-3-yl)-2-((2R,5S)-5-methyl-2-(2-(1-methyl-1H-pyrazol-4-yl)benzo[d]thiazol-5-yl)piperidin-1-yl)-2-oxoacetamide] | B (an IC50 ratio greater than or equal to 3 fold but lower than 10 fold) | < 1000 nM |
| 50 to 500 nM | 50 to 500 nM | 50 to 500 nM | < 100 nM | 100 to 1000 nM | Cc1cc(NC(=O)C(=O)N2C[C@H](C)CC[C@H]2c2ccc(N3CCN(C)CC3)cc2)cnc1N (racemic) [Compound 1105, rac-N-(6-Amino-5-methyl-3-pyridyl)-2-[(2R,5S)-5-methyl-2-[4-(4-methylpiperazin-1-yl)phenyl]-1-piperidyl]-2-oxo-acetamide] | A (an IC50 ratio greater than or equal to 10 fold) | < 1000 nM |
| < 50 nM | < 50 nM | 50 to 500 nM | < 100 nM | 100 to 1000 nM | CCc1cc(NC(=O)C(=O)N2C[C@@H](C)CC[C@@H]2c2ccc3sc(C4CCN(C)C(=O)C4)nc3c2)cnc1N (mixture of isomers) [Compound 1110, N-(6-amino-5-ethylpyridin-3-yl)-2-((2R,5S)-5-methyl-2-(2-(1-methyl-2-oxopiperidin-4-yl)benzo[d]thiazol-5-yl)piperidin-1-yl)-2-oxoacetamide] | A (an IC50 ratio greater than or equal to 10 fold) | < 1000 nM |
| < 50 nM | < 50 nM | < 50 nM | < 100 nM | 100 to 1000 nM | Cc1cc(NC(=O)C(=O)N2C[C@@H](C)CC[C@@H]2c2ccc3sc([C@H]4CCN(C)C(C)(C)C4)nc3c2)cnc1C (racemic) [Compound 1113, N-(5,6-dimethyl-3-pyridyl)-2-oxo-2-[(2R,5S)-5-methyl-2-[2-[(4S)-1,2,2-trimethyl-4-piperidyl]-1,3-benzothiazol-5-yl]-1-piperidyl]acetamide] | A (an IC50 ratio greater than or equal to 10 fold) | < 1000 nM |
| < 50 nM | < 50 nM | < 50 nM | < 100 nM | 100 to 1000 nM | COc1ncc(NC(=O)C(=O)N2C[C@@H](C)CC[C@@H]2c2ccc3nn(C4CCN(C)CC4)cc3c2)cc1C(N)=O (racemic) [Compound 1115, 2-Methoxy-5-[[2-oxo-2-[rac-(2R,5S)-5-methyl-2-[2-(1-methyl-4-piperidyl)indazol-5-yl]-1-piperidyl]acetyl]amino]pyridine-3-carboxamide] | A (an IC50 ratio greater than or equal to 10 fold) | < 1000 nM |
| < 50 nM | < 50 nM | < 50 nM | < 100 nM | < 100 nM | COc1ncc(NC(=O)C(=O)N2C[C@@H](C)CC[C@@H]2c2ccc3sc([C@@H]4CCN(C)C[C@H]4C)nc3c2)cc1C(N)=O (racemic) [Compound 1127, 2-methoxy-5-[[2-oxo-2-[rac-(2R,5S)-5-methyl-2-[2-[rac-(3S,4R)-1,3-dimethyl-4-piperidyl]-1,3-benzothiazol-5-yl]-1-piperidyl]acetyl]amino]pyridine-3-carboxamide] | A (an IC50 ratio greater than or equal to 10 fold) | < 1000 nM |
| < 50 nM | < 50 nM | < 50 nM | < 100 nM | < 100 nM | CCc1cc(NC(=O)C(=O)N2CC(C)CCC2c2ccc3sc(C4CCN(C)CC4C)nc3c2)cnc1N (racemic) [Compound 1131, N-(6-amino-5-ethyl-3-pyridyl)-2-oxo-2-[rac-(2R,5S)-5-methyl-2-[2-[rac-(3R,4R)-1,3-dimethyl-4-piperidyl]-1,3-benzothiazol-5-yl]-1-piperidyl]acetamide] | B (an IC50 ratio greater than or equal to 3 fold but lower than 10 fold) | < 1000 nM |
| 50 to 500 nM | 50 to 500 nM | 50 to 500 nM | < 100 nM | < 100 nM | CCc1cc(NC(=O)C(=O)N2C[C@@H](C)[C@@H](OC)C[C@@H]2c2cccc(OCCN(C)C)c2)cnc1N (racemic) [Compound 1139, N-(6-amino-5-ethyl-3-pyridyl)-2-oxo-2-[rac-(2R,4S,5R)-2-[3-[2-(dimethylamino)ethoxy]phenyl]-4-methoxy-5-methyl-1-piperidyl]acetamide] | B (an IC50 ratio greater than or equal to 3 fold but lower than 10 fold) | < 1000 nM |
| < 50 nM | < 50 nM | < 50 nM | < 100 nM | < 100 nM | CCc1cc(NC(=O)C(=O)N2C[C@@H](C)CC[C@@H]2c2ccc3nn(C4CC(C)(C)N(C)C(C)(C)C4)cc3c2)cnc1N (racemic) [Compound 1140, N-(6-Amino-5-ethyl-3-pyridyl)-2-oxo-2-[rac-(2R,5S)-5-methyl-2-[2-(1,2,2,6,6-pentamethyl-4-piperidyl)indazol-5-yl]-1-piperidyl]acetamide] | A (an IC50 ratio greater than or equal to 10 fold) | < 1000 nM |
| < 50 nM | < 50 nM | 50 to 500 nM | < 100 nM | 100 to 1000 nM | COc1ncc(NC(=O)C(=O)N2C[C@@H](C)CC[C@@H]2c2ccc3nn([C@@H]4CCN(C)C4)cc3c2)cc1C(N)=O (racemic) [Compound 1141, 2-Methoxy-5-[[2-oxo-2-[rac-(2R,5S)-5-methyl-2-[2-[rac-(3R)-1-methylpyrrolidin-3-yl]indazol-5-yl]-1-piperidyl]acetyl]amino]pyridine-3-carboxamide] | A (an IC50 ratio greater than or equal to 10 fold) | < 1000 nM |
